Earlier results as cited in PMC7310027, “PET imaging of soluble epoxide hydrolase in non-human primate brain with [^18F]FNDP” (EJNMMI Research, 2020).

Conditions: cited from earlier work

## CC(=O)N1CCC(NC(=O)NC23CC4CC(CC(C4)C2)C3)CC1 [AR-9281, 1-(1-Acetyl-piperidin-4-yl)-3-adamantan-1-yl-urea]
  BBB permeability: BBB-permeable
